pIC50: −log10 of the molar value.
System: 653999-131-R-J2-PDC complex spheroids, growth inhibition
Assay: Anticancer human tumor 653999-131-R-J2-PDC patient-derived lung adenocarcinoma cell line growth inhibition [RAS]
Conditions: for pIC50: curve of first compound; for viability, T/C: stronger effect = lower value
In short: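 Multi-cell-type spheroids: tumor cells plus HUVEC endothelial cells and mesenchymal stem cells. RAS-pathway inhibitors were combined with targeted agents, each dosed in half-log steps down from clinical Cmax, or from 10 microM when Cmax was unknown.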
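Further: spheroids exposed to the agents for seven days before the readout.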

- pIC50 (second compound 0.00316 µM): < 5.00
- pIC50 (second compound 0.01 µM): < 5.00
- pIC50 (second compound 0.0316 µM): < 5.00
- pIC50 (second compound 0.1 µM): < 5.00
- pIC50 (second compound 0.316 µM): < 5.00
- pIC50 (second compound 1 µM): < 5.00
Compound: Cc1nc(N2CCC3(CC2)COC(C)C3N)c(CO)nc1Sc1ccnc(N)c1Cl (configuration not stated) + C=CC(=O)N1CCN(c2nc(OCC3CCCN3C)nc3c(F)c(-c4nc(N)cc(C)c4C(F)(F)F)c(Cl)cc23)C(C)C1
- viability, T/C (second compound 0.00316 µM, first compound 0.0316 µM): 81.4%
- viability, T/C (second compound 0.00316 µM, first compound 0.1 µM): 76.7%
- viability, T/C (second compound 0.00316 µM, first compound 0.316 µM): 77.9%
- viability, T/C (second compound 0.00316 µM, first compound 1 µM): 74.6%
- viability, T/C (second compound 0.00316 µM, first compound 3.16 µM): 83.3%
- viability, T/C (second compound 0.00316 µM, first compound 10 µM): 78.2%
- viability, T/C (second compound 0.01 µM, first compound 0.0316 µM): 90.5%
- viability, T/C (second compound 0.01 µM, first compound 0.1 µM): 86.5%
- viability, T/C (second compound 0.01 µM, first compound 0.316 µM): 78.3%
- viability, T/C (second compound 0.01 µM, first compound 1 µM): 80.6%
- viability, T/C (second compound 0.01 µM, first compound 3.16 µM): 86.9%
- viability, T/C (second compound 0.01 µM, first compound 10 µM): 63.9%
- viability, T/C (second compound 0.0316 µM, first compound 0.0316 µM): 87.2%
- viability, T/C (second compound 0.0316 µM, first compound 0.1 µM): 82.6%
- viability, T/C (second compound 0.0316 µM, first compound 0.316 µM): 93.1%
- viability, T/C (second compound 0.0316 µM, first compound 1 µM): 84.7%
- viability, T/C (second compound 0.0316 µM, first compound 3.16 µM): 78.1%
- viability, T/C (second compound 0.0316 µM, first compound 10 µM): 63.9%
- viability, T/C (second compound 0.1 µM, first compound 0.0316 µM): 103%
- viability, T/C (second compound 0.1 µM, first compound 0.1 µM): 77.6%
- viability, T/C (second compound 0.1 µM, first compound 0.316 µM): 90.2%
- viability, T/C (second compound 0.1 µM, first compound 1 µM): 73.5%
- viability, T/C (second compound 0.1 µM, first compound 3.16 µM): 77%
- viability, T/C (second compound 0.1 µM, first compound 10 µM): 70%
- viability, T/C (second compound 0.316 µM, first compound 0.0316 µM): 92%
- viability, T/C (second compound 0.316 µM, first compound 0.1 µM): 82%
- viability, T/C (second compound 0.316 µM, first compound 0.316 µM): 82.9%
- viability, T/C (second compound 0.316 µM, first compound 1 µM): 78.4%
- viability, T/C (second compound 0.316 µM, first compound 3.16 µM): 80.7%
- viability, T/C (second compound 0.316 µM, first compound 10 µM): 73.9%
- viability, T/C (second compound 1 µM, first compound 0.0316 µM): 105%
- viability, T/C (second compound 1 µM, first compound 0.1 µM): 66.7%
- viability, T/C (second compound 1 µM, first compound 0.316 µM): 74.8%
- viability, T/C (second compound 1 µM, first compound 1 µM): 78.3%
- viability, T/C (second compound 1 µM, first compound 3.16 µM): 67.3%
- viability, T/C (second compound 1 µM, first compound 10 µM): 82.1%
